Experimental data reported in the Deep4Chem optical property database.

Assay: solvent given as SMILES

CN(C)c1ccc(/C=C(\C#N)c2nc3ccccc3s2)cc1
absorption maximum (in C1CCCCC1): 430 nm
absorption maximum (in CO): 450 nm

FC(F)(F)c1ccc(-c2pc3ccccc3s2)cc1 (stereo unspecified)
absorption maximum (in CC#N): 331 nm

COc1cc(OC)cc(C2=C3C(C)=C(I)C(/C=C/c4c[nH]c5ccccc45)=[N+]3[B-](F)(F)n3c(/C=C/c4c[nH]c5ccccc45)c(I)c(C)c32)c1
absorption maximum (in C1CCOC1): 715 nm
absorption maximum (in CS(C)=O): 727 nm
absorption maximum (in ClCCl): 702 nm

C1=CC2=CC=CC3C=c4c(cc5cccc6cccc4c65)C(=C1)C23 (stereo unspecified)
absorption maximum (in ClCCl): 543 nm

CCN1CCN(c2ccc(/N=N/c3ccc([N+](=O)[O-])cc3)cc2)CC1
absorption maximum (in CCOC(C)=O): 448 nm

CN(C)c1ccc(C2=Cc3ccc4ccccc4[n+]3[B-](F)(F)O2)cc1
absorption maximum (in C1CCOC1): 472 nm
absorption maximum (in C1COCCO1): 472 nm
absorption maximum (in CC1CCCCC1): 473 nm
absorption maximum (in CC#N): 468 nm
absorption maximum (in CCOC(C)=O): 468 nm
absorption maximum (in CCOCC): 467 nm
absorption maximum (in CN(C)C=O): 474 nm
absorption maximum (in CO): 468 nm
absorption maximum (in COC(C)=O): 468 nm
absorption maximum (in ClC(Cl)Cl): 477 nm

CCCCOc1ccc(/C=C/C=C/C=C/c2ccc([N+](=O)[O-])cc2)cc1
absorption maximum (in CC1CCCCC1): 414 nm
absorption maximum (in CC#N): 413 nm
absorption maximum (in Cc1ccccc1): 420 nm
absorption maximum (in ClCCl): 421 nm

COc1ccc(-c2c3nc(cc4ccc([nH]4)c(-c4ccc(OC)c(OCC(=O)O)c4)c4nc(cc5ccc2[nH]5)CC4)C=C3)cc1OCC(=O)O
absorption maximum (in CS(C)=O): 644 nm

O=C1NC(=O)/C(=C\c2ccccc2O)S1
absorption maximum (in C1CCCCC1): 347 nm
absorption maximum (in C1COCCO1): 350 nm
absorption maximum (in CC#N): 348 nm
absorption maximum (in CN(C)C=O): 353 nm
absorption maximum (in CO): 352 nm
absorption maximum (in O): 351 nm
absorption maximum (in OCC(O)CO): 364 nm
absorption maximum (in OCCO): 360 nm

N#Cc1cc(/C=C/c2ccc(/C=C/c3ccc(N(c4ccccc4)c4ccccc4)cc3)c(C#N)c2)ccc1/C=C/c1ccc(N(c2ccccc2)c2ccccc2)cc1
absorption maximum (in ClCCl): 429 nm

CC1=CC2=C3C(=C4C(C)=C(c5ccc(-c6nc(-c7ccccc7)c(-c7ccccc7)[nH]6)cc5)S[C@@]4(C)[C@]2(C)S1)C(F)(F)C(F)(F)C3(F)F
absorption maximum (in C1CCOC1): 546 nm

CCOC(=O)c1c(NC(C)(C)C)oc(-c2ccc(-c3ccccc3)cc2)c1C(=O)OCC
absorption maximum (in CC#N): 355 nm

O=C(c1ccc(C(=O)c2ccc(N3c4ccccc4Oc4ccccc43)cc2)cc1)c1ccc(N2c3ccccc3Oc3ccccc32)cc1
absorption maximum (in Cc1ccccc1): 425 nm

Cc1ccc2c(c1)nc1c(=O)n(C)c(=O)nc-1n2C
absorption maximum (in CC#N): 446 nm

C[N+]1=c2ccc3c(c2C(C)(C)CC1)Oc1cc2c(cc1C=3c1ccccc1C(=O)O)C(c1ccccc1C(=O)O)=c1ccc3c(c1O2)C(C)(C)CC[N+]=3C
absorption maximum (in ClC(Cl)Cl): 617 nm

CC1=CC(C)=[N+]2C1=C(c1ccccc1)c1c(C)cc(/C=C/c3ccccc3)n1[B-]2(F)F
absorption maximum (in CC#N): 560 nm

CCC1=C(C)C(=O)n2c1cc1c(C)c(CC)c(C)n1c2=O
absorption maximum (in CC#N): 423 nm
absorption maximum (in CC(C)=O): 422 nm
absorption maximum (in CO): 428 nm
absorption maximum (in CS(C)=O): 428 nm
absorption maximum (in ClC(Cl)Cl): 432 nm
absorption maximum (in c1ccccc1): 428 nm

CC(C)Oc1ccc(C#Cc2cc3ccccc3oc2=O)cc1
absorption maximum (in CC#N): 356 nm

O=Cc1nc2ccc(C#Cc3ccc(N(c4ccc(C#Cc5ccc6nc(C=O)sc6c5)cc4)c4ccc(C#Cc5ccc6nc(C=O)sc6c5)cc4)cc3)cc2s1
absorption maximum (in Cc1ccccc1): 414 nm
